Test results reported in ChEMBL document CHEMBL1201862, “PubChem BioAssay data set” (2004).
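Five concentrations, 48 hours, 96-well plates. GI50: concentration for 50% inhibition of growth.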 Active and inactive are the calls of the source. Rule as the data show it: active = GI50 up to about 1.1 µM and inactive = higher.

How the values were obtained:
Experiment in all cases: growth of human tumour cells (NCI), 48 h
SNB-75 = test system: SNB-75
UACC-257 = test system: UACC-257
A549 = test system: A549
SK-MEL-28 = test system: SK-MEL-28
SR = test system: SR
HL-60 = test system: HL-60
HOP-92 = test system: HOP-92
SN12C = test system: SN12C
OVCAR-8 = test system: OVCAR-8
SW-620 = test system: SW-620
NCI-H460 = test system: NCI-H460
Malme-3M = test system: Malme-3M
OVCAR-3 = test system: OVCAR-3
KM12 = test system: KM12
SF-539 = test system: SF-539
HCT-15 = test system: HCT-15
NCI-H226 = test system: NCI-H226
SK-MEL-2 = test system: SK-MEL-2
T47D = test system: T47D

Row | Structure (SMILES) | GI50 (SNB-75) | GI50 (UACC-257) | GI50 (A549) | GI50 (SK-MEL-28) | GI50 (SR) | GI50 (HL-60) | GI50 (HOP-92) | GI50 (SN12C) | GI50 (OVCAR-8) | GI50 (SW-620) | GI50 (NCI-H460) | GI50 (Malme-3M) | GI50 (OVCAR-3) | GI50 (KM12) | GI50 (SF-539) | GI50 (HCT-15) [µM] | GI50 (NCI-H226) | GI50 (SK-MEL-2) | GI50 (T47D)
1 | O=C(O)c1c(-c2c3ccc(=O)cc-3oc3cc(O)ccc23)cc2ccccc2c1-c1ccccc1 | 41.5 µM (inactive) | > 100 µM (inactive) | > 100 µM (inactive) | > 100 µM (inactive) | > 100 µM (inactive) | > 74.6 µM (inactive) | > 100 µM (inactive) | > 100 µM (inactive) | > 100 µM (inactive) | > 100 µM (inactive) | > 66.4 µM (inactive) | > 100 µM (inactive) | > 100 µM (inactive) | > 100 µM (inactive) | > 100 µM (inactive) | > 100 | > 100 µM (inactive) | > 100 µM (inactive) | > 93.1 µM (inactive)
2 | O=c1oc2ccc(Cl)cc2cc1C1=CSC2=NCCN12 | 44.5 µM (inactive) | 37.7 µM (inactive) | 40.7 µM (inactive) | 27.9 µM (inactive) | 17.1 µM (inactive) | 21.7 µM (inactive) | 22.1 µM (inactive) | 17.4 µM (inactive) | 19.9 µM (inactive) | 24.6 µM (inactive) | 30.3 µM (inactive) | 31.1 µM (inactive) | 18.4 µM (inactive) | 19.8 µM (inactive) | 28.6 µM (inactive) | 18.9 | – | 23.3 µM (inactive) | 25.3 µM (inactive)
3 | O=S(=O)(CC(Cl)c1ccccc1)c1nc2ccccc2s1 (configuration not stated) | 14.5 µM (inactive) | 7.8 µM (inactive) | 19.5 µM (inactive) | 15.7 µM (inactive) | 1.67 µM (inactive) | 2.11 µM (inactive) | 2.88 µM (inactive) | 10.2 µM (inactive) | 7.96 µM (inactive) | 5.2 µM (inactive) | 19.7 µM (inactive) | 9.16 µM (inactive) | 8.53 µM (inactive) | 17.2 µM (inactive) | 10.2 µM (inactive) | 8.02 | 8.11 µM (inactive) | 17.8 µM (inactive) | 13.2 µM (inactive)
4 | CCCCCCCCCCCCCCCCCc1cccc(OCOCCOC)c1C(=O)O | 15.5 µM (inactive) | 20.5 µM (inactive) | 18.7 µM (inactive) | 20.1 µM (inactive) | 25.4 µM (inactive) | 20.9 µM (inactive) | 18.9 µM (inactive) | 22.4 µM (inactive) | 16.4 µM (inactive) | 20.3 µM (inactive) | 21.5 µM (inactive) | 10.2 µM (inactive) | 16.9 µM (inactive) | 17.1 µM (inactive) | 16.2 µM (inactive) | 19.3 | 17 µM (inactive) | 19.5 µM (inactive) | 16.5 µM (inactive)
5 | O=C(c1ccccc1)N(CCCCNC(=O)C(F)(F)F)CCCNC(=O)C(F)(F)F | 32.6 µM (inactive) | > 100 µM (inactive) | > 100 µM (inactive) | > 100 µM (inactive) | 0.94 µM (active) | > 100 µM (inactive) | > 100 µM (inactive) | > 100 µM (inactive) | > 100 µM (inactive) | > 100 µM (inactive) | > 100 µM (inactive) | > 100 µM (inactive) | – | > 100 µM (inactive) | > 100 µM (inactive) | > 100 | > 100 µM (inactive) | – | > 100 µM (inactive)
6 | CCOC(=O)/C=C(\C(=O)OCC)n1ccc(=O)[nH]c1=O | 17.1 µM (inactive) | 4.72 µM (inactive) | 29.8 µM (inactive) | 16.9 µM (inactive) | 10.4 µM (inactive) | 2.44 µM (inactive) | 2.55 µM (inactive) | 11.8 µM (inactive) | 24 µM (inactive) | 2.64 µM (inactive) | 21.7 µM (inactive) | 10.2 µM (inactive) | 13.2 µM (inactive) | 17.9 µM (inactive) | 24.2 µM (inactive) | 6.27 | 13.3 µM (inactive) | 23.4 µM (inactive) | 6.59 µM (inactive)
7 | COc1ccc(N2C(=O)C3c4[nH]c5ccc([N+](=O)[O-])cc5c4C4CCC(C(C)(C)C)CC4C3C2=O)cc1 (configuration not stated) | 7.28 µM (inactive) | 35.2 µM (inactive) | 6.28 µM (inactive) | 61.7 µM (inactive) | 3.72 µM (inactive) | 8.02 µM (inactive) | 6.9 µM (inactive) | 15.2 µM (inactive) | 23.6 µM (inactive) | 37.1 µM (inactive) | 2.15 µM (inactive) | 28.4 µM (inactive) | 7.29 µM (inactive) | 6.5 µM (inactive) | 15.2 µM (inactive) | 14.4 | 28 µM (inactive) | 26.1 µM (inactive) | 27.5 µM (inactive)
8 | COc1ccc(/C=C2\N=C(N3CCCC(CO)C3)NC2=O)cc1 (configuration not stated) | > 100 µM (inactive) | > 100 µM (inactive) | > 100 µM (inactive) | > 100 µM (inactive) | > 100 µM (inactive) | > 100 µM (inactive) | > 100 µM (inactive) | > 100 µM (inactive) | > 100 µM (inactive) | > 100 µM (inactive) | – | > 100 µM (inactive) | > 100 µM (inactive) | > 100 µM (inactive) | > 100 µM (inactive) | > 100 | > 100 µM (inactive) | > 100 µM (inactive) | > 100 µM (inactive)
9 | NC(=O)NC(=O)c1cccc(NC(=O)CCl)c1 | 1.98 µM (inactive) | 1.19 µM (inactive) | – | 7 µM (inactive) | 0.124 µM (active) | 0.569 µM (active) | 4.34 µM (inactive) | 1.43 µM (inactive) | 2.22 µM (inactive) | 0.621 µM (active) | 1.5 µM (inactive) | 5.22 µM (inactive) | 0.223 µM (active) | 0.579 µM (active) | 0.655 µM (active) | 0.948 | 2.19 µM (inactive) | 2.38 µM (inactive) | 2.18 µM (inactive)
10 | COc1cc(/C=C2\Sc3scc(-c4cccc([N+](=O)[O-])c4)[n+]3C2=O)cc(OC)c1OC | 1.47 µM (inactive) | 12.5 µM (inactive) | 19.2 µM (inactive) | 16.1 µM (inactive) | 2.05 µM (inactive) | 36.7 µM (inactive) | 11.3 µM (inactive) | 18.1 µM (inactive) | 15.5 µM (inactive) | 9.1 µM (inactive) | 11 µM (inactive) | 13.8 µM (inactive) | 15.8 µM (inactive) | 17.8 µM (inactive) | 8.89 µM (inactive) | – | 5.2 µM (inactive) | 17 µM (inactive) | 5.56 µM (inactive)
11 | CC1=C(C(=O)OC23CC4CC(CC(C4)C2)C3)C(c2ccccc2OC(F)F)C(C(=O)OC23CC4CC(CC(C4)C2)C3)=C(C)N1 (configuration not stated) | 43.7 µM (inactive) | > 100 µM (inactive) | > 100 µM (inactive) | > 100 µM (inactive) | > 100 µM (inactive) | > 100 µM (inactive) | > 100 µM (inactive) | > 100 µM (inactive) | > 100 µM (inactive) | > 100 µM (inactive) | > 100 µM (inactive) | > 100 µM (inactive) | 50.5 µM (inactive) | > 100 µM (inactive) | > 100 µM (inactive) | > 100 | > 100 µM (inactive) | > 100 µM (inactive) | > 100 µM (inactive)
12 | C=CCN1C(=O)CC2[C@@H]3CCc4cc(O)ccc4C3CC[C@]2(C)C1=O (some centres not stated) | – | > 10 µM (inactive) | > 10 µM (inactive) | > 10 µM (inactive) | > 10 µM (inactive) | > 10 µM (inactive) | > 10 µM (inactive) | > 10 µM (inactive) | > 10 µM (inactive) | > 10 µM (inactive) | > 10 µM (inactive) | > 10 µM (inactive) | > 10 µM (inactive) | > 10 µM (inactive) | > 10 µM (inactive) | > 10 | > 10 µM (inactive) | > 10 µM (inactive) | > 10 µM (inactive)
13 | C=CC1(c2ccc(OC)cc2)OCCCO1 | > 100 µM (inactive) | > 100 µM (inactive) | > 100 µM (inactive) | > 100 µM (inactive) | > 100 µM (inactive) | > 100 µM (inactive) | > 100 µM (inactive) | > 100 µM (inactive) | > 100 µM (inactive) | > 100 µM (inactive) | > 100 µM (inactive) | > 100 µM (inactive) | > 100 µM (inactive) | > 100 µM (inactive) | > 100 µM (inactive) | > 100 | > 100 µM (inactive) | > 100 µM (inactive) | > 100 µM (inactive)
14 | CC(=O)OCC1OC(OC2CC3C(C)(C)C(=O)CC[C@]3(C)C3CC[C@]45C[C@]4(CCC5[C@@H](C)CC(O)C(O)C(C)(C)O)[C@]23C)C(O)C(O)C1O (some centres not stated) | 5.35 µM (inactive) | 11.2 µM (inactive) | 17.3 µM (inactive) | 3.24 µM (inactive) | 4.35 µM (inactive) | 2.25 µM (inactive) | 3.18 µM (inactive) | 13.4 µM (inactive) | 13.5 µM (inactive) | 13.2 µM (inactive) | 13.6 µM (inactive) | 14.1 µM (inactive) | 12.7 µM (inactive) | 6.43 µM (inactive) | 15.3 µM (inactive) | 17.6 | 16.5 µM (inactive) | 4.93 µM (inactive) | 5.68 µM (inactive)
15 | C=C(C)[C@@]12C[C@H](OC(=O)[C@H](O)[C@@H](NC(=O)c3ccccc3)c3ccccc3)C(C)=C1[C@@H](OC(C)=O)C(=O)[C@@]1(C)C([C@@H]2OC(=O)c2cc(F)cc(F)c2)C2(OC(C)=O)CO[C@@H]2C[C@@H]1O (some centres not stated) | 0.0966 µM (active) | 0.0796 µM (active) | 0.0752 µM (active) | 0.363 µM (active) | 0.169 µM (active) | 0.0269 µM (active) | 2.4 µM (inactive) | 0.144 µM (active) | 0.065 µM (active) | 0.0505 µM (active) | 0.0348 µM (active) | 0.461 µM (active) | 0.122 µM (active) | – | 0.0282 µM (active) | 0.292 | 0.883 µM (active) | 0.144 µM (active) | 0.117 µM (active)
